What was measured:
[1] = system: hTERT mRNA; experiment: Real time QRT-PCR of hTERT mRNA; format: cell-based, human
Protocol: Total cellular RNA was isolated with TRIZol™ reagent (Invitrogen, Carlsbad, Calif.) and treated with DNA-free kit (Ambion, Austin, Tex.). First-strand cDNA was synthesized from 8 μg of total cellular RNA using the Superscript III First-Strand Synthesis System (Invitrogen, Carlsbad, Calif.). RNase H-treated cDNA from 20 ng RNA was amplified by quantitative real time PCR using the Taqman Gene Expression Assay for hTERT (Assay ID: Hs00972646_m1, Applied Biosystems) spanning exons 14 and 15 and human RPLP0 (large ribosomal protein) endogenous control, VIC/MGB Probe, primer limited (Applied Biosystems). All samples were run in triplicate using the ABI 7900HT system and the amount of product was calculated with reference to standard curves generated by 4-fold serial dilutions of a mixed set of cDNAs with high telomerase expression. Values were adjusted relative to the level of RPO transcripts.

[2] = system: primary human foreskin keratinocytes; details: cited from earlier work
[3] = system: CIN612 9E cells; experiment: Growth of CIN1-derived cell line CIN612 9E; format: cell-based, human; details: 10 μM Y-27632; 44 days; FIG. 7
Protocol: (§1) The 9E and […] (20863 clone) cell lines were cultured in F-media on irradiated J2 feeder cells. For the Y-27632 experiments they were cultured in F-medium with or without 10 μM Y-27632 and continually passed for the times indicated.

[4] = system: keratinocytes; experiment: Organotypic raft culture (differentiation, stratification); format: cell-based, human
Protocol: Organotypic cultures were generated as described previously with modifications. (Banerjee et al., Methods Mol. Med. 119: 187-202, 2005). Briefly, 1×10^5 keratinocytes were seeded onto a rat tail type 1 collagen dermal equivalent containing 1−2×10^6 J2 3T3 feeder cells. The rafts were lifted onto stainless steel grids and were fed by diffusion from below with raft medium [3:1 (v/v) DMEM-F-12 (Ham), 10% FBS, 0.4 μg/ml hydrocortisone, 0.1 nM cholera toxin, and 5 μg/ml transferring]. Raft cultures were allowed to stratify and differentiate for 11-17 days. The collagen-epithelial rafts were fixed in formalin for 4 hours, paraffin embedded, sectioned and stained with hematoxylin and eosin (H&E) or by immunofluorescence as described in Pei et al. (Methods Mol. Med. 119: 49-59, 2005). Monoclonal antibody against anti-keratin 14 (K14) (Ab-1) was from Thermo Fisher Scientific, Fremont, Calif. Goat polyclonal antiserum against Filaggrin (N-20) and rabbit polyclonal antiserum against involucrin (H-120) were from Santa Cruz Biotechnology.

[5] = system: human embryonic stem cells; details: cited from earlier work
[6] = system: airway epithelial cells; details: Moore et al. 2004; cited from earlier work
[7] = system: W12 cells (20863 clone); experiment: Growth of CIN1-derived cell line W12; format: cell-based, human; details: 10 μM Y-27632; 44 days; FIG. 7
Protocol: as §1

[8] = system: HPV18; experiment: HPV DNA replication assay (Southern blot) in transfected primary keratinocytes, HPV18; format: cell-based, human papillomavirus
Protocol: Cloned viral genomes were cleaved with restriction enzymes to separate viral and vector sequences. The genomes were religated at a concentration of 5 μg/ml to favor intramolecular circularization. Prior to electroporation, J2 feeder cells were removed from the keratinocytes by versene treatment and the HFKs were collected by trypsinization. HFKs (1×10^6) were electroporated with 2 μg of re-circularized viral genomic DNA using the Amaxa Nucleofector II electroporator and the Human Keratinocyte Nucleofector Kit. The Amaxa program optimized for cell survival was used according to the manufacturer's specifications. Cells were removed from the cuvettes immediately following electroporation, and seeded onto 10 cm plates containing irradiated feeder cells and F-medium, in the presence or absence of 10 μM Y-27632, as indicated. At various times post-transfection, low molecular weight DNA was isolated by a modified Hirt extraction procedure (Ustav et al., EMBO J. 10:449-457, 1991). For Southern blot analysis, the isolated DNA was linearized with EcoRI or BamHI, depending on cloning site for each viral genome, and DpnI, to digest any unreplicated input DNA. DNA fragments were separated by agarose gel electrophoresis followed by Southern blot hybridization. A ^32P-labeled probe was synthesized from the isolated viral genomic DNA (purified from the vector sequence) by the random prime method and used in Southern hybridizations.

[9] = system: p16^INK4a; experiment: Immunodetection of p16INK4a; format: cell-based, human
Protocol: Proteins were extracted in 2% sodium dodecyl sulfate (SDS), 50 mM Tris-HCl (pH 6.8), 10% glycerol supplemented with inhibitors Complete and PhosphoSTOP (Roche, Indianapolis, Ind.). Protein samples were resolved on NuPage gels, electrotransferred to Immobilon-P membrane (Millipore, Billerica, Mass.), and probed with the relevant antibodies before detection by chemiluminescence. Monoclonal antibody against p53 (DO-1) was obtained from Santa Cruz Biotechnology (Santa Cruz, Calif.). Monoclonal antibody against α-tubulin (B-5-1-2) was obtained from Sigma-Aldrich. Polyclonal antibodies against Myc (N-262), p21 (C-19), and p16 (C-20) were obtained from Santa Cruz Biotechnology.

[10] = system: human vaginal keratinocytes (HVK); experiment: Long-term culture / immortalization of primary human vaginal keratinocytes on feeder cells; format: cell-based; details: 10 μM Y-27632; FIG. 9
Protocol: The HPV18 cell line was established by introducing the HPV18 genome into primary HFKs using the Amaxa human keratinocyte nucleofection system. Primary human cervical keratinocytes (HCKs), human vaginal keratinocytes (HVKs), the HPV18 cell lines and the HPV31 positive cell line (CIN-612 9E) were grown in the presence or absence of 10 μM Y-27632 (Alexis Biochemicals), as indicated. Cells were subcultured by removing the fibroblast feeder cells with versene and keratinocytes were collected by trypsinization. At each pass, 2×10^5 cells were plated on a 10 cm plate of J2 feeder cells. Population doubling was calculated as: PD=3.32(log(# cells harvested/# cells seeded)). Immunodetection

## CC(N)[C@H]1CC[C@H](C(=O)Nc2ccncc2)CC1 (single isomer, unassigned; (+)) [Y-27632, (+)-trans-N-(4-Pyridyl)-4-(1-aminoethyl)-cyclohexanecarboxamide]
[1]; by passage 34 in Y-27632
  level of hTERT mRNA versus HPV18-immortalized keratinocytes: comparable to those in HPV18-immortalized keratinocytes
[1]; foreskin keratinocytes with passage in Y-27632, FIG. 11A
  level of hTERT mRNA: increased with passage
[2]
  colony forming ability: increase the colony forming ability
[3]
  growth rate: no differences in growth rate were observed
[4]; 10 μM Y-27632 added to the organotypic raft culture medium
  differentiation and stratification: no differentiation or stratification were observed
[4]; cells cultured in Y-27632 for 18 passages and late pass, raft media without Y-27632
  formation of stratified epithelium: could also produce a stratified epithelium in organotypic culture
[4]; raft tissue from Y-27632-treated cells, immunofluorescence
  expression of keratin 14, involucrin and filaggrin: expressed these differentiation markers in the appropriate layer
[5]; Li et al. 2008
  survival rate of human embryonic stem cells following cryopreservation: enhances the survival rate
[5]; Watanabe et al. 2007
  survival of embryonic stem cells: greatly increase the survival of embryonic stem cells
[6]
  effect on airway epithelial cells: induces membrane ruffling, loss of actin stress fibers and apoptosis
[7]
  growth rate: no differences in growth rate were observed
[8]; 10 μM Y-27632, two and five days post-electroporation, FIG. 5
  efficiency of HPV replication: greatly increased the efficiency of HPV replication up to five days
[8]; after day 10, FIG. 6
  HPV18 replication, long-term assay: greater levels of replication in the absence of Y-27632
[8]; at early times, FIGS. 5 and 6
  HPV18 replication, long-term assay: greater in the presence of Y-27632
[9]; HPV immortalized cells
  p16^INK4a levels: no effect
[9]; after long-term culture with Y-27632, FIG. 12A
  p16^INK4a mRNA and protein expression: still observed, albeit at a low level
[10]
  bypass of senescence: efficiently bypassed senescence with no observed decline in growth rate
  cellular proliferation: dramatic increase in cellular proliferation

Source: patent US8637310B2, “Use of a rock inhibitor to sustain primary human keratinocytes in a proliferative state” (The United States of America, as represented by the …, priority 2008, dated 2014)
